Data taken from patent US7595398B2, “N-(5-membered aromatic ring)-amido anti-viral compounds” (SmithKline Beecham Corporation, priority 2005, dated 2009).

Test system: HCV replicon I389luc-ubi-neo/NS3-3′/ET in ET (Huh-lucubineo-ET) cells; screening for HCV RNA dependent RNA polymerase
Test: Replicon Assay (luciferase, ET cell line Huh-lucubineo-ET)
Type: cell-based
Conditions: Hepatitis C virus; inhibition of replication relative to no compound control; test concentration of 10 μM according to the fitted equation; luciferase 48-72 hours
Method in brief: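 Huh-derived ET cells stably carrying an I389luc-ubi-neo/NS3-3′/ET HCV replicon with a luciferase-ubiquitin-neomycin phosphotransferase fusion and adaptive NS3-5B mutations were cultured in DMEM with 10% fetal calf serum and 250 μg/mL G418. Cells were seeded at 0.5-1.0×10^4 cells/well in 96 well plates and given compound after 24 hrs. Luciferase was read 48-72 hours later with Bright-Glo reagents, and replication inhibition was expressed relative to untreated controls.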

SMILES | inhibition at 10 µM
O=C(NC1CC1)c1ccc(-c2csc(NC(=O)[C@@H]3CCCN3C(=O)OCc3ccccc3)n2)cc1 [Compound 5096, 2-[4-(4-Cyclopropylcarbamoyl-phenyl)-thiazol-2-ylcarbamoyl]-pyrrolidine-1-carboxylic acid benzyl ester] | 100%
O=C(Nc1nc(Sc2nnc(-c3ccccc3)o2)cs1)[C@@H]1CCCN1C(=O)OCc1ccccc1 [Compound 5010, 2-[4-(5-Phenyl-[1,3,4]oxadiazol-2-ylsulfanyl)-thiazol-2-ylcarbamoyl]-pyrrolidine-1-carboxylic acid benzyl ester] | 6.41%
Cc1ccc(S(=O)(=O)Cc2csc(NC(=O)[C@@H]3CCCN3C(=O)OCc3ccccc3)n2)cc1 [Compound 5033, 2-[4-(Toluene-4-sulfonylmethyl)-thiazol-2-ylcarbamoyl]-pyrrolidine-1-carboxylic acid benzyl ester] | 2.51%
COC(=O)c1sc(NC(=O)[C@@H]2CCCN2C(=O)OCc2ccccc2)nc1-c1ccc(C(=O)NC2CC2)cc1 [Compound 5362, 2-[(1-Benzyloxycarbonyl-pyrrolidine-2-carbonyl)-amino]-4-(4-cyclopropylcarbamoyl-phenyl)-thiazole-5-carboxylic acid methyl ester] | 98.7%
O=C(Nc1nc(-c2cccc(NCC3CC3)c2)cs1)[C@@H]1CCCN1C(=O)OCc1ccccc1 [Compound 5335, 2-{4-[3-(Cyclopropylmethyl-amino)-phenyl]-thiazol-2-ylcarbamoyl}-pyrrolidine-1-carboxylic acid benzyl ester] | 92.5%
O=C(Nc1nc(-c2ccc(F)c(F)c2)cs1)[C@@H]1CCCN1C(=O)OCc1ccccc1 [Compound 5056, 2-[4-(3,4-Difluoro-phenyl)-thiazol-2-ylcarbamoyl]-pyrrolidine-1-carboxylic acid benzyl ester] | 99.3%
O=C(Nc1nc(-c2ccc(S(=O)(=O)NC3CCCC3)cc2)cs1)C1CCCN1C(=O)OCc1ccccc1 (stereo not shown) [Compound 5354, 2-[4-(4-Cyclopentylsulfamoyl-phenyl)-thiazol-2-ylcarbamoyl]-pyrrolidine-1-carboxylic acid benzyl ester] | 87.5%
O=C(NC1CC1)c1ccc(-c2csc(NC(=O)[C@@H]3CCCN3C(=O)OCc3ccccc3)n2)nc1 [Compound 5355, 2-[4-(5-Cyclopropylcarbamoyl-pyridin-2-yl)-thiazol-2-ylcarbamoyl]-pyrrolidine-1-carboxylic acid benzyl ester] | 99.9%
O=C1CC(c2csc(NC(=O)[C@@H]3CCCN3C(=O)OCc3ccccc3)n2)C2(CCCCC2)O1 (stereo partly shown) [Compound 5044, 2-[4-(2-Oxo-1-oxa-spiro[4.5]dec-4-yl)-thiazol-2-ylcarbamoyl]-pyrrolidine-1-carboxylic acid benzyl ester] | 16.9%
O=C(NC1CC1)c1ccc(-c2csc(NC(=O)[C@@H]3CCCN3CCc3ccccc3)n2)cc1 [Compound 5316, 1-Phenethyl-pyrrolidine-2-carboxylic acid [4-(4-cyclopropylcarbamoyl-phenyl)-thiazol-2-yl]-amide] | 3.19%
O=C(Nc1nc(-c2ccc(C(=O)N3CCN(CCO)CC3)cc2)cs1)[C@@H]1CCCN1C(=O)OCc1ccccc1 [Compound 5377, 2-(4-{4-[4-(2-Hydroxy-ethyl)-piperazine-1-carbonyl]-phenyl}-thiazol-2-ylcarbamoyl)-pyrrolidine-1-carboxylic acid benzyl ester] | 5.71%
O=C(NC1CCCNC1)c1ccc(-c2csc(NC(=O)C3CCCN3C(=O)OCc3ccccc3)n2)cc1 (stereo not shown) [Compound 5343, 2-{4-[4-(Piperidin-3-ylcarbamoyl)-phenyl]-thiazol-2-ylcarbamoyl}-pyrrolidine-1-carboxylic acid benzyl ester] | 100%
O=C(Nc1ccccc1)c1ccc(-c2csc(NC(=O)C3CCCN3C(=O)OCc3ccccc3)n2)cc1 (stereo not shown) [Compound 5109, 2-[4-(4-Phenylcarbamoyl-phenyl)-thiazol-2-ylcarbamoyl]-pyrrolidine-1-carboxylic acid benzyl ester] | 100%
O=C(Nc1nc(-c2ccc(OCc3ccc(Br)cc3)cc2)cs1)[C@@H]1CCCN1C(=O)OCc1ccccc1 [Compound 5066, 2-{4-[4-(4-Bromo-benzyloxy)-phenyl]-thiazol-2-ylcarbamoyl}-pyrrolidine-1-carboxylic acid benzyl ester] | 5.72%
O=C(Nc1nc(-c2ccc3c(c2)Cc2ccccc2-3)cs1)[C@@H]1CCCN1C(=O)OCc1ccccc1 [Compound 5058, 2-[4-(9H-Fluoren-2-yl)-thiazol-2-ylcarbamoyl]-pyrrolidine-1-carboxylic acid benzyl ester] | 18.6%
O=C(NC1CC1)c1ccc(-c2csc(NC(=O)[C@@H]3CCCN3C(=O)Cc3ccc(F)cc3)n2)cc1 [Compound 5323, 1-[2-(4-Fluoro-phenyl)-acetyl]-pyrrolidine-2-carboxylic acid [4-(4-cyclopropylcarbamoyl-phenyl)-thiazol-2-yl]-amide] | 81.5%

SMILES | inhibition at 10 µM
CC(C)(C)NC(=O)c1ccc(-c2csc(NC(=O)[C@@H]3CCCN3C(=O)OCc3ccccc3)n2)cc1 [Compound 5326, 2-[4-(4-tert-Butylcarbamoyl-phenyl)-thiazol-2-ylcarbamoyl]-pyrrolidine-1-carboxylic acid benzyl ester] | 100%
CC(C)(C)OC(=O)N1CCCC(NC(=O)c2ccc(-c3csc(NC(=O)[C@@H]4CCCN4C(=O)OCc4ccccc4)n3)cc2)C1 (stereo in doubt) [Compound 5365, 3-(4-{2-[(1-Benzyloxycarbonyl-pyrrolidine-2-carbonyl)-amino]-thiazol-4-yl}-benzoylamino)-piperidine-1-carboxylic acid tert-butyl ester] | 99.9%
O=C(NC1CC1)c1ccc(-c2csc(NC(=O)[C@@H]3CCCN3C(=O)COc3ccccc3)n2)cc1 (stereo in doubt) [Compound 5331, 1-(2-Phenoxy-acetyl)-pyrrolidine-2-carboxylic acid [4-(4-cyclopropylcarbamoyl-phenyl)-thiazol-2-yl]-amide] | 43%
O=C(NC1CNC1)c1ccc(-c2csc(NC(=O)[C@@H]3CCCN3C(=O)OCc3ccccc3)n2)cc1 [Compound 5337, 2-{4-[4-(Azetidin-3-ylcarbamoyl)-phenyl]-thiazol-2-ylcarbamoyl}-pyrrolidine-1-carboxylic acid benzyl ester] | 100%
Cc1ccc(-c2csc(NC(=O)[C@@H]3CCCN3C(=O)OCc3ccccc3)n2)cc1 [Compound 5022, 2-(4-p-Tolyl-thiazol-2-ylcarbamoyl)-pyrrolidine-1-carboxylic acid benzyl ester] | 56%
COC(=O)N1CCC[C@H]1C(=O)Nc1nc(-c2ccc(C(=O)NC3CC3)cc2)cs1 [Compound 5373, 2-[4-(4-Cyclopropylcarbamoyl-phenyl)-thiazol-2-ylcarbamoyl]-pyrrolidine-1-carboxylic acid methyl ester] | 81.5%
O=C(Nc1nc(-c2cc3ccccc3oc2=O)cs1)[C@@H]1CCCN1C(=O)OCc1ccccc1 [Compound 5007, 2-[4-(2-Oxo-2H-chromen-3-yl)-thiazol-2-ylcarbamoyl]-pyrrolidine-1-carboxylic acid benzyl ester] | 100%
Cc1ccc(Cc2cnc(NC(=O)[C@@H]3CCCN3C(=O)OCc3ccccc3)s2)cc1Cl [Compound 5025, 2-[5-(3-Chloro-4-methyl-benzyl)-thiazol-2-ylcarbamoyl]-pyrrolidine-1-carboxylic acid benzyl ester] | 2.86%
CC1(C)CC(c2csc(NC(=O)[C@@H]3CCCN3C(=O)OCc3ccccc3)n2)CCO1 (stereo in doubt) [Compound 5046, 2-[4-(2,2-Dimethyl-tetrahydro-pyran-4-yl)-thiazol-2-ylcarbamoyl]-pyrrolidine-1-carboxylic acid benzyl ester] | 8.29%
O=C(Nc1nc(-c2ccc(NS(=O)(=O)c3ccccc3)cc2)cs1)C1CCCN1C(=O)OCc1ccccc1 (stereo not shown) [Compound 5027, 2-[4-(4-Benzenesulfonylamino-phenyl)-thiazol-2-ylcarbamoyl]-pyrrolidine-1-carboxylic acid benzyl ester] | 99.7%
Cc1sc2nc(SCc3csc(NC(=O)[C@@H]4CCCN4C(=O)OCc4ccccc4)n3)n(C)c(=O)c2c1C [Compound 5032, 2-[4-(3,5,6-Trimethyl-4-oxo-3,4-dihydro-thieno[2,3-d]pyrimidin-2-ylsulfanylmethyl)-thiazol-2-ylcarbamoyl]-pyrrolidine-1-carboxylic acid benzyl ester] | 38.6%
O=C(Nc1nc(-c2ccccc2Cl)cs1)[C@@H]1CCCN1C(=O)OCc1ccccc1 [Compound 5103, 2-[4-(2-Chloro-phenyl)-thiazol-2-ylcarbamoyl]-pyrrolidine-1-carboxylic acid benzyl ester] | 99.3%
O=C(Nc1nc(-c2ccc(C(=S)NC3CC3)cc2)cs1)[C@@H]1CCCN1C(=O)OCc1ccccc1 [Compound 5308, 2-[4-(4-Cyclopropylthiocarbamoyl-phenyl)-thiazol-2-ylcarbamoyl]-pyrrolidine-1-carboxylic acid benzyl ester] | 100%
O=C(NC1CC1)c1ccc(-c2csc(NC(=O)[C@@H]3CSCN3C(=O)OCc3ccccc3)n2)cc1 [Compound 5327, 4-[4-(4-Cyclopropylcarbamoyl-phenyl)-thiazol-2-ylcarbamoyl]-thiazolidine-3-carboxylic acid benzyl ester] | 100%
O=C(O)c1ccc(-c2cnc(NC(=O)[C@@H]3CCCN3C(=O)OCc3ccccc3)s2)cc1 [Compound 5353, 2-[5-(4-Carboxy-phenyl)-thiazol-2-ylcarbamoyl]-pyrrolidine-1-carboxylic acid benzyl ester] | 50.2%
